According to PMC6412891, “Synthesis and Biological Evaluation of Novel Thiazolyl-Coumarin Derivatives as Potent Histone Deacetylase Inhibitors with Antifibrotic Activity” (Molecules, 2019):

Tests used:
[1] = system: histone H4-acetylated in CFs; test: Histone H4-acetylated expression in cardiac fibroblasts, western blot; format: cell-based, rat; conditions: 5 μM for 8 h, vs. control
Method: For this purpose, CFs of neonatal rats were incubated in the presence/absence of the 5a, 6a, 7a and 8a derivatives, and the expression of histone H4–acetylated was measured using the western blot technique.
For the analysis of the protein expression of histone H4–acetylated (ac–H4) and total H4 histone, a number of 1 × 10^6 of CFs seeded in 60 mm plates was used, […] Subsequently, total histones were extracted by the technique of saline precipitation (high salt extraction). Briefly, CFs were scraped from the plates with 1 mL of cold PBS transferring their contents to Eppendorf tubes to be centrifuged for 60 s at 1500 rpm at 4 °C and re–suspended in 400 μL of cold buffer A (10 mM 4-(2-hydroxyethyl)-1-piperazineethanesulfonic acid-KOH (HEPES-KOH) adjusted to pH 7.9, 1.5 mM MgCl2, 10 mM KCl, 0.5 mM dithiothreitol and 0.2 mM phenylmethylsulfonyl fluoride (PMSF). The suspension is left on ice for 10 min and then placed in the vortex for 10 s. The samples were centrifuged for 60 s, subsequently discarding the supernatant fraction. The obtained pellet was re-suspended in 60 μL of cold C buffer (20 mM HEPES-KOH adjusted to pH 7.9, 25% glycerol, 420 mM NaCl, 1.5 mM MgCl2, 0.2 mM EDTA, dithiothreitol 0.5 mM and 0.2 mM PMSF) and placed on ice for 20 min for saline precipitation. Cell debris is removed by centrifugation for 120 s at 1500 rpm at 4 °C and the supernatant fraction, which contains the DNA binding proteins, is stored at minus 20 °C. For the analysis of α–SMA and procollagen type I expression levels, 3×10^5 CFs seeded in 35 mm plates were used, which were incubated together with inhibitor compounds at a 5 μM, in the absence/presence of TGF–β1 (5 ng/mL) for 48 h. To obtain the total proteins, the CFs were washed three times with cold PBS, then scraped and lysed with 50 μL of radio inmuno-precipitation assay (RIPA) lysis buffer (10 mM Tris–HCl pH 7.2, 5 mM EDTA, 150 mM NaCl, Triton X–100 1%, sodium dodecyl sulfate (SDS) 0.1%, deoxycholate 1%, leupeptin 2 μg/mL, aprotinin 10mM, PMSF 1mM and Na3VO4 100μM). The solution was centrifuged for 15 min at 10,000 rpm and at 4 °C. The supernatant fraction containing the total proteins was stored at minus 20 °C. The concentration of proteins obtained was determined by spectrophotometry at 570 nm, using the Bradford method (Bio-Rad, Hercules, CA, USA).
CFs proteins (25 μg), were subjected to 10% sodium dodecyl sulfate-polyacrylamide gel electrophoresis and finally transferred onto a nitrocellulose membrane (Millipore, Billerica, MA, USA). The membrane was washed twice with tris–buffered saline solution containing 0.1% Tween 20 (TBST). […]
Figure 3 CTz non–substituted derivatives inhibit histone H4 acetylation. […] Nuclear extracts were isolated and histone H4 acetylation expression levels were measured by western blot. […]

[2] = system: α-SMA expression in CFs; test: α-SMA expression levels in cardiac fibroblasts, western blot; format: cell-based, rat; conditions: for α-SMA expression levels: 5 μM for 48 h, absence of TGF-β1, vs. control; for α-SMA expression levels induced by TGF-β1: derivatives 5 μM (TSA 0.1 μM) for 48 h in presence of TGF-β1
Method: For this purpose, a fixed concentration of 5a, 6a, 7a and 8a derivatives in the presence/absence of TGF–β1 (a strong inducer of CFs–to–CMFs differentiation), was studied, and α–SMA expression levels were measured by using the western blot technique. TSA was used as a control and also for comparative purposes.
For the analysis of the protein expression of histone H4–acetylated (ac–H4) and total H4 histone, a number of 1 × 10^6 of CFs seeded in 60 mm plates was used, which were incubated with the inhibitory compounds at a concentration of 10 μM, in the absence/presence of TGF–β1(5ng/mL) for 4 h. Subsequently, total histones were extracted by the technique of saline precipitation (high salt extraction). Briefly, CFs were scraped from the plates with 1 mL of cold PBS transferring their contents to Eppendorf tubes to be centrifuged for 60 s at 1500 rpm at 4 °C and re–suspended in 400 μL of cold buffer A (10 mM 4-(2-hydroxyethyl)-1-piperazineethanesulfonic acid-KOH (HEPES-KOH) adjusted to pH 7.9, 1.5 mM MgCl2, 10 mM KCl, 0.5 mM dithiothreitol and 0.2 mM phenylmethylsulfonyl fluoride (PMSF). The suspension is left on ice for 10 min and then placed in the vortex for 10 s. The samples were centrifuged for 60 s, subsequently discarding the supernatant fraction. The obtained pellet was re-suspended in 60 μL of cold C buffer (20 mM HEPES-KOH adjusted to pH 7.9, 25% glycerol, 420 mM NaCl, 1.5 mM MgCl2, 0.2 mM EDTA, dithiothreitol 0.5 mM and 0.2 mM PMSF) and placed on ice for 20 min for saline precipitation. Cell debris is removed by centrifugation for 120 s at 1500 rpm at 4 °C and the supernatant fraction, which contains the DNA binding proteins, is stored at minus 20 °C. For the analysis of α–SMA and procollagen type I expression levels, 3×10^5 CFs seeded in 35 mm plates were used, which were incubated together with inhibitor compounds at a 5 μM, in the absence/presence of TGF–β1 (5 ng/mL) for 48 h. To obtain the total proteins, the CFs were washed three times with cold PBS, then scraped and lysed with 50 μL of radio inmuno-precipitation assay (RIPA) lysis buffer (10 mM Tris–HCl pH 7.2, 5 mM EDTA, 150 mM NaCl, Triton X–100 1%, sodium dodecyl sulfate (SDS) 0.1%, deoxycholate 1%, leupeptin 2 μg/mL, aprotinin 10mM, PMSF 1mM and Na3VO4 100μM). The solution was centrifuged for 15 min at 10,000 rpm and at 4 °C. The supernatant fraction containing the total proteins was stored at minus 20 °C. The concentration of proteins obtained was determined by spectrophotometry at 570 nm, using the Bradford method (Bio-Rad, Hercules, CA, USA).
CFs proteins (25 μg), were subjected to 10% sodium dodecyl sulfate-polyacrylamide gel electrophoresis and finally transferred onto a nitrocellulose membrane (Millipore, Billerica, MA, USA). The membrane was washed twice with tris–buffered saline solution containing 0.1% Tween 20 (TBST). After being blocked with TBST containing 5% nonfat milk for 40 min, the membrane was incubated with primary antibodies in TBST/1% nonfat milk at 4 °C overnight. The membrane was washed three times with TBST for a total of 15 min and then incubated with primary antibodies (ac–H4, H4 total, α-SMA, procollagen type I and GAPDH). Then the membrane was incubated with goat anti–rabbit or anti-mouse IgG antibodies conjugated with horseradish (diluted 1:1000) for 1 h at room temperature. Signals were developed with ECL reagents and exposure to photographic film.
Figure 4 CTz non–substituted inhibit α-SMA expression in cardiac fibroblasts. (A) CFs were exposed to 5a, 6a, 7a and 8a at 5 μM for 48 h. […] (B) CFs were exposed to 5a, 6a, 7a and 8a at 5 μM for 48 h in presence of TGF–β1 ([…]). α-SMA expression levels were measured by western blot. GAPDH was used as control load.

Row | melting point | Compound | histone H4-acetylated expression [1] | α-SMA expression levels [2] | α-SMA expression levels induced by TGF-β1 [2]
1 | 91 to 92 °C | O=C(CCCCC1CCSS1)Nc1nc(-c2cc3ccccc3oc2=O)cs1 (stereo not shown) [Compound 5a, 5-[1,2]-Dithiolan-3-yl-N-[4-(2-oxo-2H-chromen-3-yl)-thiazol-2-yl]-pentanamide] | increase in a statistically significant manner | decreased in a statistically significant manner | decrease close to control levels
2 | – | O=C(Nc1nc(-c2cc3ccccc3oc2=O)cs1)c1ccc(O)c(O)c1 [Compound 6a] | increase in a statistically significant manner | decreased in a statistically significant manner | decrease close to control levels
3 | – | O=C(O)CCCCC(=O)Nc1nc(-c2cc3ccccc3oc2=O)cs1 [Compound 7a] | had no effect | had no effect | –
4 | 150 to 152 °C (dec.) | O=C(CCCCC(=O)Nc1nc(-c2cc3ccccc3oc2=O)cs1)NO [Compound 8a, 5-[4-(2-Oxo-2H-chromen-3-yl)-thiazol-2-yl-carbamoyl]-N-hydroxypentanamide] | increase in a statistically significant manner | decreased in a statistically significant manner | decrease close to control levels
